Source: patent US8133849B2, “Herbicidal compounds” (Syngenta Limited, priority 2007, dated 2012)

Columns and labels:
Experiment in all cases: Example B2 herbicidal action, post-emergence, pots in glasshouse, damage score 0-10
Assay type in all cases: in vivo
Settings in all cases: application post-emergence, rate 1000 g/ha, evaluated after 13 days
[1] = system: Setaria faberi
How it was run: (§1)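 Damage was assessed 13 days after a post-emergence spray given to 8-day-old pot seedlings. The spray was an aqueous solution from an acetone/water (50:50) formulation with 0.5% Tween 20. Plants grew in a glasshouse at 24/16° C, 14 h light, 65% humidity, watered twice daily.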

[2] = system: Echinochloa crus-galli
How it was run: as §1

[3] = system: Ipomea hederaceae
How it was run: as §1

[4] = system: Solanum nigrum
How it was run: as §1

[5] = system: Amaranthus retroflexus
How it was run: as §1

For `CC(C)(C)C(=O)OC1=C(c2cc(F)c(Cl)cc2Cl)S(=O)(=O)N(CC(F)F)c2nccnc21` [Compound C47], the “SETFA damage score (10=total damage to plant; 0=no damage to plant)” value [1] was 7, the “ECHCG damage score (10=total damage to plant; 0=no damage to plant)” value [2] was 4 and the “IPOHE damage score (10=total damage to plant; 0=no damage to plant)” value [3] was 7. The “SOLNI damage score (10=total damage to plant; 0=no damage to plant)” value [4] was 10 and the “AMARE damage score (10=total damage to plant; 0=no damage to plant)” value [5] was 10.

With `CCN1c2nccnc2C(O)=C(c2ccccc2OC(F)(F)F)S1(=O)=O` [Compound D5] the “SETFA damage score (10=total damage to plant; 0=no damage to plant)” value [1] was 6, the “ECHCG damage score (10=total damage to plant; 0=no damage to plant)” value [2] was 4 and the “IPOHE damage score (10=total damage to plant; 0=no damage to plant)” value [3] was 9. The “SOLNI damage score (10=total damage to plant; 0=no damage to plant)” value [4] was 10 and the “AMARE damage score (10=total damage to plant; 0=no damage to plant)” value [5] was 10.

`CSC(=O)OC1=C(c2c(Cl)ccc(Cl)c2Cl)S(=O)(=O)N(CC(F)F)c2nccnc21` [Compound C130] was tested, and the “SETFA damage score (10=total damage to plant; 0=no damage to plant)” value [1] was 7, the “ECHCG damage score (10=total damage to plant; 0=no damage to plant)” value [2] was 8 and the “IPOHE damage score (10=total damage to plant; 0=no damage to plant)” value [3] was 10. The “SOLNI damage score (10=total damage to plant; 0=no damage to plant)” value [4] was 10 and the “AMARE damage score (10=total damage to plant; 0=no damage to plant)” value [5] was 10.

In the case of `O=S1(=O)C(c2c(Cl)cccc2C(F)(F)F)=C(O)c2nccnc2N1CC(F)F` [Compound D11], the “SETFA damage score (10=total damage to plant; 0=no damage to plant)” value [1] is reported as 8, the “ECHCG damage score (10=total damage to plant; 0=no damage to plant)” value [2] is reported as 8 and the “IPOHE damage score (10=total damage to plant; 0=no damage to plant)” value [3] is reported as 9. For the same compound, the “SOLNI damage score (10=total damage to plant; 0=no damage to plant)” value [4] was 10 and the “AMARE damage score (10=total damage to plant; 0=no damage to plant)” value [5] was 10.

`O=S1(=O)C(c2ccccc2I)=C(O)c2nccnc2N1CC(F)F` [Compound D44] was tested, and the “SETFA damage score (10=total damage to plant; 0=no damage to plant)” value [1] was 6, the “ECHCG damage score (10=total damage to plant; 0=no damage to plant)” value [2] was 9 and the “IPOHE damage score (10=total damage to plant; 0=no damage to plant)” value [3] was 10. For the same compound, the “SOLNI damage score (10=total damage to plant; 0=no damage to plant)” value [4] was 10 and the “AMARE damage score (10=total damage to plant; 0=no damage to plant)” value [5] was 10.

In the case of `CC(C)C(=O)OC1=C(c2ccccc2OC(F)(F)F)S(=O)(=O)N(CC(F)F)c2nccnc21` [Compound C22], the “SETFA damage score (10=total damage to plant; 0=no damage to plant)” value [1] is reported as 4, the “ECHCG damage score (10=total damage to plant; 0=no damage to plant)” value [2] is reported as 7 and the “IPOHE damage score (10=total damage to plant; 0=no damage to plant)” value [3] is reported as 9. For the same compound, the “SOLNI damage score (10=total damage to plant; 0=no damage to plant)” value [4] was 10 and the “AMARE damage score (10=total damage to plant; 0=no damage to plant)” value [5] was 10.

`CCN1c2nccnc2C(O)=C(c2cc(C(F)(F)F)ccc2Br)S1(=O)=O` [Compound D35] was tested, and the “SETFA damage score (10=total damage to plant; 0=no damage to plant)” value [1] was 4, the “ECHCG damage score (10=total damage to plant; 0=no damage to plant)” value [2] was 1 and the “IPOHE damage score (10=total damage to plant; 0=no damage to plant)” value [3] was 10. For the same compound, the “SOLNI damage score (10=total damage to plant; 0=no damage to plant)” value [4] was 9 and the “AMARE damage score (10=total damage to plant; 0=no damage to plant)” value [5] was 8.

In the case of `CCOC(=O)OC1=C(c2cc(C)ccc2C(F)(F)F)S(=O)(=O)N(CC(F)F)c2nccnc21` [Compound C147, carbonic acid 1-(2,2-difluoro-ethyl)-3-(5-methyl-2-trifluoromethyl-phenyl)-2,2-dioxo-1,2-dihydro-2-λ-6-thia-1,5,8-triaza-naphthalen-4-yl ester ethyl ester], the “SETFA damage score (10=total damage to plant; 0=no damage to plant)” value [1] is reported as 3, the “ECHCG damage score (10=total damage to plant; 0=no damage to plant)” value [2] is reported as 2 and the “IPOHE damage score (10=total damage to plant; 0=no damage to plant)” value [3] is reported as 9. The “SOLNI damage score (10=total damage to plant; 0=no damage to plant)” value [4] was 9 and the “AMARE damage score (10=total damage to plant; 0=no damage to plant)” value [5] was 1.

`CS(=O)(=O)OC1=C(c2cc(C(F)(F)F)ccc2Cl)S(=O)(=O)N(CC(F)F)c2nccnc21` [Compound C95] was tested, and the “SETFA damage score (10=total damage to plant; 0=no damage to plant)” value [1] was 3, the “ECHCG damage score (10=total damage to plant; 0=no damage to plant)” value [2] was 6 and the “IPOHE damage score (10=total damage to plant; 0=no damage to plant)” value [3] was 10. For the same compound, the “SOLNI damage score (10=total damage to plant; 0=no damage to plant)” value [4] was 9 and the “AMARE damage score (10=total damage to plant; 0=no damage to plant)” value [5] was 7.
